Measured values taken from patent US20090208434A1, “3-(4-hydroxy-3-methoxyphenyl)-1-(4-hydroxyphenyl)-1-propanone and its use in cosmetic and pharmaceutical preparations” (SYMRISE GmbH & Co. KG, priority 2008, published 2009).

What was measured:
[1] = system: IL-1; experiment: Inhibition of upregulation of inflammatory mediators: IL-1; settings: according to the dose and even at low concentrations
From the text: (§1) It can therefore be used as an outstanding alternative or as an addition to other already well-known anti-inflammatory compounds (active substances) in cosmetic and pharmaceutical preparations or similar as an anti-inflammatory active substance.

[2] = system: TNF-alpha (tumor necrosis factor alpha); experiment: Inhibition of upregulation of inflammatory mediators: TNF-alpha; settings: according to the dose and even at low concentrations
From the text: as §1

[3] = system: PGE-2 (prostaglandin E2); experiment: Inhibition of upregulation of inflammatory mediators: PGE-2; settings: according to the dose and even at low concentrations
From the text: as §1

[4] = Sensitization and irritation test of the compound itself; settings: test concentration of 50% by weight
From the text: The inventive compound of formula 1 with an anti-inflammatory effect can also be used as a component of inventive scent compositions (odorous substance compositions) and for example to give a perfumed finished product an anti-inflammatory effect. Since the proportion of perfume in a cosmetic finished product is often around 1% by weight, a scent containing the inventive compound of formula 1, will preferably include or be comprised approximately 1-50% by weight of the compound of formula 1.

[5] = system: IL-6; experiment: Inhibition of upregulation of inflammatory mediators: IL-6; settings: according to the dose and even at low concentrations
From the text: as §1

[6] = Investigations of the chemical characteristics (stability); type: physicochemical
From the text: Furthermore, once the inventive compound of formula 1 had been incorporated into inventive cosmetic and pharmaceutical preparations no discoloration of this preparation was detected.

photostability [6]: high photostability
temperature stability [6]: high temperature stability
stability in a broad pH range ([6]; broad pH range): high stability in a broad pH range
SMILES: COc1cc(CCC(=O)c2ccc(O)cc2)ccc1O [compound of formula 1, 3-(4-hydroxy-3-methoxyphenyl)-1-(4-hydroxyphenyl)-1-propanone]
upregulation of IL-1 caused by extrinsic and intrinsic factors [1]: inhibiting the upregulation
upregulation of TNF-alpha caused by extrinsic and intrinsic factors [2]: inhibiting the upregulation
upregulation of PGE-2 caused by extrinsic and intrinsic factors [3]: inhibiting the upregulation
irritation [4]: did not cause irritation
sensitization [4]: not sensitizing
upregulation of IL-6 caused by extrinsic and intrinsic factors [5]: inhibiting the upregulation
